# Measurements as given in ChEMBL document CHEMBL5338791, “Discovery of Novel 1,3-Diphenylpyrazine Derivatives as Potent S-Phase Kinase-Associated Protein 2 (Skp2) Inhibitors for the Treatment of Cancer” (J Med Chem, 2023).
# Calls of active or inactive are those of the source. No cut-off for these calls is given here.
# Experiments:
# PC-3 [1] = test: Downregulation of Skp2 level in human PC-3 cells incubated for 48 hrs by Western blot analysis; format: functional, cell-based; conditions: dose <= 10.0 µM
# PC-3 [2] = test: Upregulation of p27 level in human PC-3 cells upto 10 uM by Western blot analysis; format: functional, cell-based; conditions: time 48.0 hrs, TDE = time-dependent effect
# MGC-803 [3] = test: Antitumor activity against human MGC-803 cells overexpressing Skp2 assessed as cell growth inhibition incubated for 72 hrs by MTT assay; format: functional, cell-based; conditions: MGC-803, 72 h
# MGC-803 [4] = test: Upregulation of p27 level in human MGC-803 cells upto 10 uM by Western blot analysis; format: functional, cell-based; conditions: time 48.0 hrs, TDE = time-dependent effect
# PC-3 [5] = test: Inhibition of colony formation in human PC-3 cells at 0.5 to 2 uM incubated for 10 days by crystal violet staining based microscopy; format: functional, cell-based; conditions: dose 0.5-2 µM, time 10.0 day
# MGC-803 [6] = test: Inhibition of cell migration in human MGC-803 cells by transwell invasion assay; format: functional, cell-based; conditions: dose <= 2.0 µM
# PC-3 [7] = test: Induction of cell cycle arrest in human PC-3 cells assessed as accumulation of cells at G1 phase at 2.5 uM incubated for 48 hrs by flow cytometry (reference value: 57.39 %); format: functional
# PC-3 [8] = test: Induction of cell cycle arrest in human PC-3 cells assessed as accumulation of cells at G2 phase at 2.5 uM incubated for 48 hrs by flow cytometry (reference value: 22.59 %); format: functional
# PC-3 [9] = test: Induction of cell cycle arrest in human PC-3 cells assessed as accumulation of cells at G1 phase at 10 uM incubated for 48 hrs by flow cytometry (reference value: 57.39 %); format: functional
# PC-3 [10] = test: Induction of cell cycle arrest in human PC-3 cells assessed as accumulation of cells at G2 phase at 10 uM incubated for 48 hrs by flow cytometry (reference value: 22.59 %); format: functional
# MGC-803 [11] = test: Induction of cell cycle arrest in human MGC-803 cells assessed as accumulation of cells at G2 phase at 2.5 uM incubated for 48 hrs by flow cytometry (reference value: 21.35 %); format: functional
# MGC-803 [12] = test: Induction of cell cycle arrest in human MGC-803 cells assessed as accumulation of cells at G1 phase at 5 uM incubated for 48 hrs by flow cytometry (reference value: 54.46 %); format: functional
# MGC-803 [13] = test: Induction of cell cycle arrest in human MGC-803 cells assessed as accumulation of cells at G1 phase at 10 uM incubated for 48 hrs by flow cytometry (reference value: 54.46 %); format: functional
# PC-3 [14] = test: Induction of cell cycle arrest in human PC-3 cells assessed as accumulation of cells at G2 phase at 10 uM incubated for 6 hrs by flow cytometry (reference value: 19.34 %); format: functional
# PC-3 [15] = test: Induction of cell cycle arrest in human PC-3 cells assessed as accumulation of cells at G1 phase at 10 uM incubated for 24 hrs by flow cytometry (reference value: 56.81 %); format: functional
# PC-3 [16] = test: Induction of cell cycle arrest in human PC-3 cells assessed as accumulation of cells at S phase at 10 uM incubated for 24 hrs by flow cytometry (reference value: 19.7 %); format: functional
# MGC-803 [17] = test: Induction of cell cycle arrest in human MGC-803 cells assessed as accumulation of cells at G2 phase at 10 uM incubated for 24 hrs by flow cytometry (reference value: 20.64 %); format: functional
# PC-3 [18] = test: Induction of apoptosis in human PC-3 cells assessed as late apoptotic cells at 2.5 uM incubated for 48 hrs by annexin V-FITC/PI staining based flow cytometry (reference value: 0.45 %); format: functional
# PC-3 [19] = test: Induction of apoptosis in human PC-3 cells assessed as viable cells at 5 uM incubated for 48 hrs by annexin V-FITC/PI staining based flow cytometry (reference value: 98.6 %); format: functional; conditions: read-out: Activity
# MGC-803 [20] = test: Induction of apoptosis in human MGC-803 cells assessed as viable cells at 2.5 uM incubated for 48 hrs by annexin V-FITC/PI staining based flow cytometry (reference value: 98 %); format: functional; conditions: read-out: Activity
# MGC-803 [21] = test: Induction of apoptosis in human MGC-803 cells assessed as late apoptotic cells at 5 uM incubated for 48 hrs by annexin V-FITC/PI staining based flow cytometry (reference value: 0.95 %); format: functional
# PC-3 [22] = test: Antitumor activity against human PC-3 cells xenografted in NOD-SCID mouse model assessed as tumor growth inhibition at 50 mg/kg, IG administered once every 2 days for 21 days relative to control; format: functional; conditions: PC-3, po, 504 h, time 21 day, read-out: TGI
# [23] = Toxicity in NOD-SCID mouse model xenografted with human PC-3 cells assessed as body weight change at 10 to 50 mg/kg, IG administered once every 2 days for 21 days; format: organism-based; conditions: in vivo, po, 504 h, dose 10-50 mg/kg, time 21 day
# [24] = Toxicity in NOD-SCID mouse model xenografted with human PC-3 cells assessed as drug tolerance at 10 to 50 mg/kg, IG administered once every 2 days for 21 days; format: organism-based; conditions: in vivo, po, 504 h, dose 10-50 mg/kg, time 21 day
# [25] = Toxicity in NOD-SCID mouse model xenografted with human PC-3 cells assessed as change in kidney histology at 10 to 50 mg/kg, IG administered once every 2 days for 21 days by H and E staining based analysis; format: organism-based; conditions: in vivo, po, 504 h, dose 10-50 mg/kg, time 21 day
# [26] = Toxicity in NOD-SCID mouse model xenografted with human PC-3 cells assessed as change in lung histology at 10 to 50 mg/kg, IG administered once every 2 days for 21 days by H and E staining based analysis; format: organism-based; conditions: in vivo, po, 504 h, dose 10-50 mg/kg, time 21 day
# [27] = Toxicity in NOD-SCID mouse model xenografted with human PC-3 cells assessed as change in heart histology at 10 to 50 mg/kg, IG administered once every 2 days for 21 days by H and E staining based analysis; format: organism-based; conditions: in vivo, po, 504 h, dose 10-50 mg/kg, time 21 day
# [28] = Toxicity in NOD-SCID mouse model xenografted with human MGC-803 cells assessed as body weight change at 10 to 50 mg/kg, IG administered once every 2 days for 21 days; format: organism-based; conditions: in vivo, po, 504 h, dose 10-50 mg/kg, time 21 day
# [29] = Toxicity in NOD-SCID mouse model xenografted with human MGC-803 cells assessed as drug tolerance at 10 to 50 mg/kg, IG administered once every 2 days for 21 days; format: organism-based; conditions: in vivo, po, 504 h, dose 10-50 mg/kg, time 21 day
# [30] = Metabolic stability in mouse liver microsome assessed as half life at 20 umol/L preincubated for 5 mins followed by NADPH addition measured upto 60 mins by LC-MS/MS analysis; format: ADME; conditions: liver microsomes, dose 20 µmol/L, time < 65 min
# [31] = AUClast in tumor of NOD-SCID mouse model xenografted with human PC-3 cells at 25 mg/kg, IG measured upto 48 hrs by LC-MS/MS analysis; format: ADME, organism-based, Neoplasm; conditions: in vivo, po
# [32] = AUC (infinity) in plasma of NOD-SCID mouse model xenografted with human PC-3 cells at 25 mg/kg, IG measured upto 48 hrs by LC-MS/MS analysis; format: ADME, organism-based; set-up: time < 48 hrs, dose 25 mg/kg, route ig; conditions: po
# [33] = Apparent volume of distribution in plasma of NOD-SCID mouse model xenografted with human PC-3 cells at 25 mg/kg, IG measured upto 48 hrs by LC-MS/MS analysis; format: ADME, organism-based; conditions: in vivo, po
# [34] = MRTlast in plasma of NOD-SCID mouse model xenografted with human PC-3 cells at 25 mg/kg, IG measured upto 48 hrs by LC-MS/MS analysis; format: ADME, organism-based; conditions: po
smiles,measurement,setting,value
O=C(CCl)NC1CCN(c2cnc(-c3ccccc3)c(-c3ccccc3)n2)CC1,Activity,PC-3 [1],Dose-Dependent Effect
same,Activity,PC-3 [2],Tde
same,IC50,MGC-803 [3],7 µM
same,Activity,MGC-803 [4],Tde
same,inhibition,PC-3 [5],Active
same,inhibition,MGC-803 [6],Dose-Dependent Effect
same,Activity,PC-3 [7],48.73%
same,Activity,PC-3 [8],18.47%
same,Activity,PC-3 [9],39.51%
same,Activity,PC-3 [10],16.41%
same,Activity,MGC-803 [11],23.15%
same,Activity,MGC-803 [12],45.12%
same,Activity,MGC-803 [13],39.31%
same,Activity,PC-3 [14],19.87%
same,Activity,PC-3 [15],38.62%
same,Activity,PC-3 [16],38.52%
same,Activity,MGC-803 [17],17.72%
same,Activity,PC-3 [18],4.97%
same,viability at 5 µM,PC-3 [19],82.5%
same,viability at 2.5 µM,MGC-803 [20],89.6%
same,Activity,MGC-803 [21],12.3%
same,inhibition in vivo at 50 mg/kg,PC-3 [22],90.4%
same,Activity,[23],Non-Toxic
same,Activity,[24],Non-Toxic
same,Activity,[25],Non-Toxic
same,Activity,[26],Non-Toxic
same,Activity,[27],Non-Toxic
same,Activity,[28],Non-Toxic
same,Activity,[29],Non-Toxic
same,half-life at 20 µM,[30],0.255 h
same,AUClast,[31],2443.9 ng·h/g
same,AUC(0-inf),[32],3550 ng·h/mL
same,Vz,[33],143.3 L/kg
same,MRT last at 48 h,[34],13.4 h
